The results in this text go back to patent publication US5977386A, “6-thio-substituted paclitaxels” (Bristol-Myers Squibb Company, priority 1997, dated 1999).

The structures appear in SMILES notation. Where two headings read alike, the source gives them in different places.

Data set [1] has as its system HCT-116 human colon carcinoma cells. Nature of the data set: MTS cytotoxicity assay (72 h exposure). The format is cell-based. The method, then: Cytoxicity was assessed in HCT-116 human colon carcinoma cells by MTS (3-(4,5-dimethylthiazol-2-yl)-5-(3-carboxymethoxyphenyl)-2-(4-sulphenyl)-2H-tetrazolium, inner salt) assay as reported in T. L. Riss, et. al., "Comparison of MTT, XTT, and a novel tetrazolium compound MTS for in vitro proliferation and chemosensitivity assays.," Mol. Biol. Cell 3 (Suppl.):184a, 1992. Cells were plated at 4,000 cell/well in 96 well microtiter plates and 24 hours later drugs were added and serial diluted. The cells were incubated at 37° for 72 hours at which time the tetrazolium dye, MTS at 333 μg/ml (final concentration), in combination with the electron coupling agent phenazine methosulfate at 25 μM (final concentration) was added. A dehydrogenase enzyme in live cells reduces the MTS to a form that absorbs light at […] which can be quantitated spectrophotometrically. The greater the absorbance the greater the number of live cells. The results are expressed as an IC50, which is the drug concentration required to inhibit cell proliferation (i.e. absorbance at 450 nm) to 50% of that of untreated control cells. The IC50 values for compounds evaluated in this assay are evaluated in Table I.
^1 Cytotoxicity was determined after a 72 h exposure by MTS assay.
(In general: Formazan colour is commonly taken as a measure of viable cells.)

For the next data set, the system named is M109 lung carcinoma. Put plainly: Mice M109 Model (In-Vivo), ip M109 lung carcinoma, median survival. Further details: species or system mouse. The conditions noted are these: ip M109, Balb/c×DBA/2 F1 mice, ip injections days 5 and 8 post-implant, at optimal dose. On the procedure: Balb/c×DBA/2 F1 hybrid mice were implanted intraperitoneally, as described by William Rose in Evaluation of Madison 109 Lung Carcinoma as a Model for Screening Antitumor Drugs, Cancer Treatment Reports, 65, No. 3-4 (1981), with 0.5 mL of a 2% (w/v) brei of M109 lung carcinoma.
Mice were treated with compounds under study by receiving intraperitoneal injections of various doses on days 5 and 8 post-implant. Mice were followed daily for survival until approximately 75 days post-tumor implant. One group of mice per experiment remained untreated and served as the control group.
Median survival times of compound-treated (T) mice were compared to the median survival time of the control (C) mice. The ratio of the two values for each compound-treated group of mice was multiplied by 100 and expressed as a percentage (i.e. % T/C) in the following Table II for representative compounds.
(§1) ^a Optimal dose (mg/kg/inj) if active, otherwise, maximal tolerated
(§2) dose (MTD) or highest dose tested.

Another data set concerns M5076 murine sarcoma. Nature of the data set: sc M5076 murine sarcoma model, tumor growth delay. It is filed as in vivo. The conditions noted are these: sc M5076, iv on days 1, 3, 5, 7, and 9 post-implant, at optimal dose. The method, then:
M5076: Taxane derivatives were tested in the M5076 murine sarcoma model using the general materials and methods described by Rose, W. C. in Anticancer Research 6: 557-562, 1986, for subcutaneous M5076 implants, with the following modifications: treatments were administered intravenously on Days 1, 3, 5, 7, and 9 post-tumor implant using eight mice per treatment and untreated control group. Activity was determined based on an increase in lifespan (as described in the preceding reference) of […], and, in particular, on a delay in tumor growth equivalent to at least 1 gross log cell kill (LCK). The latter was calculated as described in Rose, W. C. and Basler, G. A. in In Vivo 4: 391-396, 1990.
as §1, §2

[2] abbreviates: Homo sapiens, HCT-116, 72 h, read-out: Cytotoxicity Assay IC50 against HCT 116 Human colon tumor cell line.
[3] abbreviates: Homo sapiens, HCT-116, read-out: Cytotoxicity Assay IC50 against HCT 116 Human colon tumor cell line.

As for `CC(=O)O[C@H]1C(=O)[C@]2(C)C[C@@H]([S+](C)[O-])[C@H]3OC[C@@]3(OC(C)=O)[C@H]2[C@H](OC(=O)c2ccccc2)[C@]2(O)C[C@H](OC(=O)[C@H](O)[C@@H](NC(=O)c3ccccc3)c3ccccc3)C(C)=C1C2(C)C` (single isomer, unassigned) [Compound 19, 7-deoxy-6β-methyl sulfoxide-paclitaxel], the IC50 (in general, the point on the concentration scale where inhibition reaches its midpoint) in data set [1] (4320 min, read-out: Cytotoxicity Assay IC50 against HCT 116 Human colon tumor cell line) turned out to be 50.9 nM. In the data set with M109 lung carcinoma, the “Maximum % T/C (ratio of median survival times treated/control x 100)” value was determined as 169%. For the same compound, in the data set with M5076 murine sarcoma, the “Maximum T-C in LCK (gross log cell kill)” value is 0.4 LCK.

As to `CC(=O)O[C@H]1C(=O)[C@]2(C)C[C@@H](SC#N)[C@H]3OC[C@@]3(OC(C)=O)[C@H]2[C@H](OC(=O)c2ccccc2)[C@]2(O)C[C@H](OC(=O)[C@H](O)[C@@H](NC(=O)c3ccccc3)c3ccccc3)C(C)=C1C2(C)C` [Compound 17, 7-deoxy-6β-thiocyanato-paclitaxel], the IC50 in data set [1] (setting [2]) came out at 3.8 nM. For the same compound, the “Maximum % T/C (ratio of median survival times treated/control x 100)” value in the data set with M109 lung carcinoma came to 194%. Further, the “Maximum T-C in LCK (gross log cell kill)” value in the data set on M5076 murine sarcoma is 0.7 LCK.

Turning to `CC(=O)O[C@H]1C(=O)[C@]2(C)C[C@@H](S(C)(=O)=O)[C@H]3OC[C@@]3(OC(C)=O)[C@H]2[C@H](OC(=O)c2ccccc2)[C@]2(O)C[C@H](OC(=O)[C@H](O)[C@@H](NC(=O)c3ccccc3)c3ccccc3)C(C)=C1C2(C)C` [Compound 21, 7-deoxy6β-methyl sulfone-paclitaxel], the IC50 in data set [1] (setting [3]) is more than 109 nM. Moreover, the “Maximum % T/C (ratio of median survival times treated/control x 100)” value with M109 lung carcinoma is 147%. In addition, in the data set on M5076 murine sarcoma, the “Maximum T-C in LCK (gross log cell kill)” value was 0 LCK.

Take `C=CCOC(=O)CS[C@@H]1C[C@@]2(C)C(=O)[C@H](OC(C)=O)C3=C(C)[C@@H](OC(=O)[C@H](O)[C@@H](NC(=O)c4ccccc4)c4ccccc4)C[C@@](O)([C@@H](OC(=O)c4ccccc4)[C@@H]2[C@]2(OC(C)=O)CO[C@H]12)C3(C)C` [Compound 42, 7-deoxy-6b-allyl thioacetatepaclitaxel]: the IC50 in data set [1] (setting [2]) was 9 nM. In the data set on M109 lung carcinoma, the “Maximum % T/C (ratio of median survival times treated/control x 100)” value turned out to be 106%.

On to `CC(=O)O[C@H]1C(=O)[C@]2(C)C[C@@H](Sc3ccccc3)[C@H]3OC[C@@]3(OC(C)=O)[C@H]2[C@H](OC(=O)c2ccccc2)[C@]2(O)C[C@H](OC(=O)[C@H](O)[C@@H](NC(=O)c3ccccc3)c3ccccc3)C(C)=C1C2(C)C` [Compound 52, 6b-thiophenyl-7-deoxy-paclitaxel], for which, in data set [1] (setting [2]), the concentration for half-maximal inhibition (IC50) came to 0.58 nM. For the same compound, the “Maximum % T/C (ratio of median survival times treated/control x 100)” value in the data set on M109 lung carcinoma turned out to be 114%.

As to `CC(=O)O[C@H]1C(=O)[C@]2(C)C[C@@H](Sc3cccs3)[C@H]3OC[C@@]3(OC(C)=O)[C@H]2[C@H](OC(=O)c2ccccc2)[C@]2(O)C[C@H](OC(=O)[C@H](O)[C@@H](NC(=O)c3ccccc3)c3ccccc3)C(C)=C1C2(C)C` [Compound 54, 6-b-thio-(2-thienyl)-7-deoxypaclitaxel], in data set [1] (setting [2]), the IC50 turned out to be 1.1 nM. Moreover, the “Maximum % T/C (ratio of median survival times treated/control x 100)” value in the data set with M109 lung carcinoma was determined as 148%.

`CC(=O)O[C@H]1C(=O)[C@]2(C)C[C@@H](SCC(=O)O)[C@H]3OC[C@@]3(OC(C)=O)[C@H]2[C@H](OC(=O)c2ccccc2)[C@]2(O)C[C@H](OC(=O)[C@H](O)[C@@H](NC(=O)c3ccccc3)c3ccccc3)C(C)=C1C2(C)C` [Compound 55]: the IC50 in data set [1] (setting [3]) is more than 108 nM. For the same compound, the “Maximum % T/C (ratio of median survival times treated/control x 100)” value in the data set with M109 lung carcinoma is 107%.
